Holding throughout (assay): NCI anticancer screen, dose series, 48 h
The subject of assay [1] is SK-MEL-28 melanoma.
The test system of assay [2] is HCC-2998 colon.
Assay [3] has as its system HL-60(TB) leukemia.
The test system of assay [4] is SK-MEL-2 melanoma.
Assay [5] concerns A498 renal.
The subject of assay [6] is HCT-116 colon.
The subject of assay [7] is HCT-15 colon.
Assay [8] deals with SK-MEL-5 melanoma.
Assay [9] relates to NCI-H460 lung.
In assay [10] the test system is SNB-19 CNS.

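Method: 48-hour compound exposure of cells in 96-well plates, five concentrations, linear interpolation of endpoints. Abbreviation: GI50, concentration required for 50% inhibition of growth. Definition used: TGI = concentration required for complete inhibition of growth.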

The results in this text go back to PubChem BioAssay (NCI).

In the case of `COc1ccc2c(c1)c(=O)c1c(NCCN(C)C)ccc3nnn2c31`, the TGI in assay [1] turned out to be 18.8 µM; in assay [2], 17.8 µM; in [3], 5.51 µM; in assay [4], 19.7 µM; in assay [5] it was 21.7 µM; in assay [6], 13.4 µM. Further, the TGI was 16 µM in assay [7], 14.1 µM in assay [8], 8.54 µM in assay [9] and 19.7 µM in [10].
As to `CC(CN(C)C)C(=O)c1ccccc1` (stereo not given), the TGI in assay [1] is more than 56.6 µM; in [2] it was 63 µM; in assay [3], more than 57 µM; in assay [4] it was 66.8 µM; in assay [5] it was more than 76.5 µM; in [6] it was more than 53 µM. In addition, the TGI in assay [7] was 33.4 µM; in [8] it was more than 100 µM; in assay [9], more than 100 µM; in [10], more than 100 µM.
For `NC(Cc1ncccn1)C(=O)O` (stereo not given), the TGI in [1], in assay [2], in [4], in assay [5], in assay [6] and in [7] was more than 100 µM each time. Besides, the TGI in assay [8], in [9] and in assay [10] was more than 100 µM each time.
On to `O=C(NCCNc1nccc(-c2c(-c3cccc(O)c3)nc3sccn23)n1)c1ccccc1`, for which the GI50 was 0.336 µM in [1]; 13.8 µM in assay [2]; 10.2 µM in [3]; 2.94 µM in assay [4]; 3.68 µM in assay [5]; 4.82 µM in assay [6]. For the same compound, the GI50 in assay [7] was 18.8 µM; in [8], 4.15 µM; in assay [9], 10.4 µM; in [10], 29.4 µM. The TGI in assay [1] was found to be 99.1 µM; in assay [2], 31.2 µM; in assay [3], 29.6 µM; in assay [4], 12.9 µM; in assay [5], 19.3 µM; in [6] it was 17.5 µM. Besides, the TGI is 62.2 µM in assay [7], 17.5 µM in assay [8], 27.5 µM in assay [9] and more than 100 µM in assay [10].
For the compound `ClCc1cccc(CSc2ncnc3c2ncn3Cc2cccc(CCl)c2)c1`, the GI50 in [1] is 1.59 µM; in assay [2] it was 1.71 µM; in assay [3], 2.26 µM; in assay [4] it was 2.58 µM; in assay [5] it was 11.1 µM; in [6] it was 1.76 µM. Further, the GI50 in [7] is 1.71 µM; in assay [8] it was 1.56 µM; in assay [9], 2.04 µM; in [10], 1.85 µM. Also, the TGI in [1] stood at 3.08 µM; in assay [2] it was 3.13 µM; in [3] it was 5.03 µM; in assay [4] it was 6.81 µM; in assay [5], 23.6 µM; in assay [6], 3.31 µM. For the same compound, the TGI in assay [7] worked out at 3.42 µM; in assay [8], 2.9 µM; in assay [9], 4.76 µM; in assay [10], 3.46 µM.
Take `O=S(=O)(O)c1ccc2c(N=Nc3ccc(Cl)cc3)c(O)ccc2c1`: the TGI in [1], in assay [4], in assay [5], in assay [6], in [7] and in assay [8] was more than 100 µM in each case. For the same compound, the TGI in assay [10] is more than 100 µM.
Take `CC(C)/C(=N\[N+](C)(C)C)c1ccccc1`: the TGI in assay [1], in [2], in assay [3], in [4], in [5] and in assay [6] was more than 100 µM throughout. Also, the TGI in [7], in [8], in [9] and in [10] was more than 100 µM throughout.
On to `CCOC(=O)Cc1cnc(NC(NC(=O)CC)(C(F)(F)F)C(F)(F)F)s1`, for which the TGI in assay [1], in assay [2], in assay [3], in assay [4], in assay [5] and in [6] was more than 100 µM throughout. For the same compound, the TGI in assay [7], in assay [9] and in [10] was more than 100 µM each time.
`COc1c2c(cc3c1C1(O)Cc4ccc5c(c4C[N+]1(C)CC3)OCO5)OCO2` (stereo not given): the TGI in assay [1], in assay [2], in assay [3], in assay [4], in [5] and in assay [6] was more than 100 µM throughout. The TGI in assay [7], in assay [8], in assay [9] and in [10] was more than 100 µM each time.
As to `COc1ccc(C2C3CCCC(C3=O)C(c3ccc(OC)cc3)N2N=O)cc1` (stereo not given), the TGI was more than 100 µM in [1]; 59.6 µM in [2]; more than 64 µM in assay [3]; 45.1 µM in [4]; 25.4 µM in [5]; more than 74.9 µM in assay [6]. Besides, the TGI in assay [7] was more than 100 µM; in assay [8], 32.4 µM; in assay [9], 42.2 µM; in assay [10], more than 91.2 µM.
With `COc1cccc2cc(C(C)=O)c(=O)oc12`, the TGI in [1], in [2], in [3], in assay [4], in assay [5] and in [6] was more than 100 µM throughout. Also, the TGI in assay [8] and in assay [9] was more than 100 µM in each case.
In the case of `O=C(NNS(=O)(=O)c1ccccc1)c1cccnc1`, the TGI in assay [1], in assay [2], in [3], in assay [4], in assay [5] and in assay [6] was more than 100 µM each time. Moreover, the TGI in assay [7], in assay [8], in [9] and in [10] was more than 100 µM in each case.
For `COc1cc(C2c3cc4c(cc3[C@@H](Oc3ccc(F)cc3)C3COC(=O)[C@H]23)OCO4)cc(OC)c1O` (stereo not given in full), the TGI was more than 100 µM in assay [1]; more than 100 µM in assay [2]; 1.06 µM in [3]; more than 100 µM in [4]; more than 100 µM in assay [6]; more than 100 µM in [7]. In addition, the TGI was 10.9 µM in [8] and 25.4 µM in [9].
For `C[N+]1(CCC[N+]2(C)CC3C4C=CC(CC4)C3C2)CCOCC1` (stereo not given), the TGI in assay [1], in assay [2], in assay [3], in assay [4], in [5] and in assay [6] was more than 100 µM in each case. For the same compound, the TGI in assay [7], in assay [8] and in assay [10] was more than 100 µM each time.
With `O=C(Nc1cccc2ccccc12)c1ccccc1`, the TGI in assay [1], in assay [2], in assay [3], in assay [4], in assay [5] and in assay [6] was more than 100 µM each time. Besides, the TGI in assay [7], in [8], in [9] and in [10] was more than 100 µM throughout.
